The results in this text go back to ChEMBL document CHEMBL1150330, “Muscarinic antagonists with multiple stereocenters: Synthesis, affinity profile and functional activity of isomeric 1-methyl-2-(2,2-alkylaryl-1,3-oxathiolan-5-yl)pyrrolidine sulfoxide derivatives” (Bioorg Med Chem, 2008).

SMILES strings stand for the structures.

Assay [1] deals with T1, Muscarinic acetylcholine receptor M2 (Homo sapiens, UniProt P08172).
T1 sequence (P08172 whole entry): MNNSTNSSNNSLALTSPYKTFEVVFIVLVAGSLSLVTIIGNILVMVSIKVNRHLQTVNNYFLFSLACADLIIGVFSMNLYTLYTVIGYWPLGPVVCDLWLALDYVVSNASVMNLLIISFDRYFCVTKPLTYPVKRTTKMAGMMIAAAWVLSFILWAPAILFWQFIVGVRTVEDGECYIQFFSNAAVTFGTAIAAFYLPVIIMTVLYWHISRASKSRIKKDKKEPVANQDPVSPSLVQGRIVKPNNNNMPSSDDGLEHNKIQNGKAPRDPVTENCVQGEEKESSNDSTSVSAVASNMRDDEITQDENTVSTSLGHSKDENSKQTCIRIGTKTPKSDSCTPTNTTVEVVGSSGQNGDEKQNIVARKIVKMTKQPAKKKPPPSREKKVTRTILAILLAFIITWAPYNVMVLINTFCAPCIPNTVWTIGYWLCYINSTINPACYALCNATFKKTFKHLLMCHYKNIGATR
As to the kind of experiment: Displacement of [3H]NMS from human muscarinic M2 receptor expressed in CHO cells. It counts as cell-based. Background: In a radioligand displacement assay an active substance lowers the binding of a labelled ligand.

In assay [2] the target is T2, Muscarinic acetylcholine receptor M5 (Homo sapiens, UniProt P08912).
T2 sequence (P08912 whole entry): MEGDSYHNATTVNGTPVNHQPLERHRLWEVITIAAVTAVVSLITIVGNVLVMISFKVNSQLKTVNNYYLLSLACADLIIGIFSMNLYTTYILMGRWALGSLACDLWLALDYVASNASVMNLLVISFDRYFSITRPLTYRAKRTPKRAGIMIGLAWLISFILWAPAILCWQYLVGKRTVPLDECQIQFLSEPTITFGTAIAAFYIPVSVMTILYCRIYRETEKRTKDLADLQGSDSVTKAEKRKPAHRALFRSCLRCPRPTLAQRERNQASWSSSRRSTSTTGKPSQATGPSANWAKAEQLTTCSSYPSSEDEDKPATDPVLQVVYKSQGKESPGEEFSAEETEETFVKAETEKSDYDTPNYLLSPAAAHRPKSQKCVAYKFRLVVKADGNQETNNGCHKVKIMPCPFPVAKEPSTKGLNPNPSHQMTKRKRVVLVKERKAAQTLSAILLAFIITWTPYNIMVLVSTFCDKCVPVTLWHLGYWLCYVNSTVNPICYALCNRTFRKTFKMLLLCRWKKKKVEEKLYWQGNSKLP
As to the kind of experiment: Displacement of [3H]NMS from human muscarinic M5 receptor expressed in CHO cells. It counts as cell-based.

Assay [3] in a line: Antagonist activity against muscarinic M3 receptor in guinea pig ileum assessed as effect on ileum tension. It counts as functional, Cavia porcellus.
Assay [4] addresses Muscarinic acetylcholine receptor M3 (Homo sapiens, UniProt P20309). As to the kind of experiment: Displacement of [3H]NMS from human muscarinic M3 receptor expressed in CHO cells. In kind it is cell-based.
Assay [5] can be described thus: Antagonist activity against muscarinic M2 receptor in guinea pig atria assessed as effect on electrically-stimulated atria. In kind it is functional, Cavia porcellus.
The target in assay [6] is T3, Muscarinic acetylcholine receptor M4 (Homo sapiens, UniProt P08173).
T3 sequence (P08173 whole entry): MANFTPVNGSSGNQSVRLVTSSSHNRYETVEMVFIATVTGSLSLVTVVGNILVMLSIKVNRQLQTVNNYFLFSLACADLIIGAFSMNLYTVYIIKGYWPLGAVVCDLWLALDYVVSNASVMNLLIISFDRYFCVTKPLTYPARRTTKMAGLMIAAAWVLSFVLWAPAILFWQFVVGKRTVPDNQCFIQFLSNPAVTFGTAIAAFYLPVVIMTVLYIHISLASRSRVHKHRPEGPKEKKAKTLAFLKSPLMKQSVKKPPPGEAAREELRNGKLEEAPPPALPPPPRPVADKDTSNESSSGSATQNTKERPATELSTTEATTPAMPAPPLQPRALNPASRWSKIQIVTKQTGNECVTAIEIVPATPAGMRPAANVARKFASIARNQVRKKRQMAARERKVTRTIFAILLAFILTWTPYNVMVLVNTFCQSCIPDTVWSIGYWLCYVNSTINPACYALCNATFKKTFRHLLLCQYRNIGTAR
As to the kind of experiment: Displacement of [3H]NMS from human muscarinic M4 receptor expressed in CHO cells. It counts as cell-based.

Assay [7] can be described thus: Antagonist activity against muscarinic M4 receptor in guinea pig lung strip assessed as effect on electrically-stimulated contraction. It counts as functional, Cavia porcellus.
The target in assay [8] is T4, Muscarinic acetylcholine receptor M1 (Homo sapiens, UniProt P11229).
T4 sequence (P11229 whole entry): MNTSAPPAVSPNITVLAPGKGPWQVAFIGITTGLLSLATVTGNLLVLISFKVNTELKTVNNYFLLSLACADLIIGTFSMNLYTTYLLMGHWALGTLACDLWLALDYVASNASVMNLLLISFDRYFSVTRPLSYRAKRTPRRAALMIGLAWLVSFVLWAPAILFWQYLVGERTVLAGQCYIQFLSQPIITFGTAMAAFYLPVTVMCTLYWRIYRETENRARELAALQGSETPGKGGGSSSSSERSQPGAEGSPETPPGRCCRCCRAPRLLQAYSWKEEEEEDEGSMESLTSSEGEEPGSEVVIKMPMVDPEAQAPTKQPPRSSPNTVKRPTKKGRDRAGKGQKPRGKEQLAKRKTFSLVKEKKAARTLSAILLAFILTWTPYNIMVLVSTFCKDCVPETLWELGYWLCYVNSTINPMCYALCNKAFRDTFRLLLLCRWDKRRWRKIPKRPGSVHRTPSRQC
As to the kind of experiment: Displacement of [3H]NMS from human muscarinic M1 receptor expressed in CHO cells. It counts as cell-based.

Chain of Muscarinic acetylcholine receptor M3 (P20309 whole entry): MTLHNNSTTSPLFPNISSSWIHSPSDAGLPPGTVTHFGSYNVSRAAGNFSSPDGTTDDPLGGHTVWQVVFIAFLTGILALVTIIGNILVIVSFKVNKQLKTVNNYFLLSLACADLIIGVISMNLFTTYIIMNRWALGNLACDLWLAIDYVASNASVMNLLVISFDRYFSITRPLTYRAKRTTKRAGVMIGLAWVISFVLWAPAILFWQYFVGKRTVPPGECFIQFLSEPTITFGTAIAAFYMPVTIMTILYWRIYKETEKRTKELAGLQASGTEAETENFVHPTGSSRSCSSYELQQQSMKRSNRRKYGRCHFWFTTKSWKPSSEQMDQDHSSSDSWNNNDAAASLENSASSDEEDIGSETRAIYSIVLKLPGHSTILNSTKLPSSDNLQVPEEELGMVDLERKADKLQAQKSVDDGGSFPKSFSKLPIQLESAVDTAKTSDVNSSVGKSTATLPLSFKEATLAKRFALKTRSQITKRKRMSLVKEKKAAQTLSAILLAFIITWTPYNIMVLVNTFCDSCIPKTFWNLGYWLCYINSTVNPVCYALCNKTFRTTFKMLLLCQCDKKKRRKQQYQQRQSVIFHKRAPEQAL

As usually defined, the Ki is a dissociation constant, usually derived from enzyme kinetics or from competition with a known ligand. Low values mean a stronger hold on the target, high ones a looser hold on the target. Broadly, the pKb is −log10 of the Kb, conventionally taken in molar units. Turning to `C[N+]1(C)CCC[C@@H]1[C@@H]1C[S+]([O-])[C@](c2ccccc2)(C2CCCCC2)O1.[I-]` (stereo in doubt; (-)-13), the Ki was 0.0955 µM in assay [1]; 0.302 µM in assay [2]; 0.324 µM in assay [4]; 0.468 µM in assay [6]; 0.117 µM in assay [8]. For the same compound, the pKb in assay [3] is 7.22; in assay [5] it was 7.51; in assay [7], 6.06.

`C[N+]1(C)CCC[C@H]1[C@H]1C[S+]([O-])[C@](c2ccccc2)(C2CCCCC2)O1.[I-]` (stereo in doubt; (-)-15): the Ki in assay [1] is 0.0575 µM; in assay [2], 0.0417 µM; in assay [4], 0.0776 µM; in assay [6], 0.112 µM; in assay [8], 0.0195 µM. In addition, the pKb in assay [3] turned out to be 7.9; in assay [5], 6.92; in assay [7], 5.64.

As for `CN1CCC[C@H]1[C@H]1C[S+]([O-])[C@](c2ccccc2)(C2CCCCC2)O1` (stereo in doubt; (-)-8), the Ki in assay [1] is 1.45 µM; in assay [2] it was 0.759 µM; in assay [4] it was 0.692 µM; in assay [6], 1.51 µM; in assay [8], 0.537 µM. Moreover, the pKb is reported as 5.95 in assay [3], 5.71 in assay [5] and 5.19 in assay [7].

On to `CN1CCC[C@@H]1[C@@H]1C[S+]([O-])[C@@](c2ccccc2)(C2CCCCC2)O1` (stereo in doubt; (+)-9), for which the Ki in assay [1] is 0.038 µM; in assay [2], 0.288 µM; in assay [4], 0.2 µM; in assay [6], 0.257 µM; in assay [8], 0.107 µM. Also, the results for the pKb in assay [3], in assay [5] and in assay [7] were 7.59, 7.72 and 6.16, respectively.

For the compound `C[N+]1(C)CCC[C@H]1[C@H]1C[S+]([O-])C(c2ccccc2)(c2ccccc2)O1.[I-]` (stereo in doubt; (+)-10), the Ki was 0.141 µM in assay [1]; 0.0912 µM in assay [2]; 0.209 µM in assay [4]; 0.209 µM in assay [6]; 0.0295 µM in assay [8]. Further, the pKb in assay [3] turned out to be 6.95; in assay [5], 7.2; in assay [7], 5.54.

As to `CN1CCC[C@H]1[C@H]1C[S+]([O-])[C@](c2ccccc2)(C2CCCCC2)O1` (stereo in doubt; (-)-9), the Ki in assay [1] was 0.302 µM; in assay [2], 0.38 µM; in assay [4] it was 0.347 µM; in assay [6], 0.501 µM; in assay [8], 0.0933 µM. Further, the pKb is recorded as 7.1 in assay [3], 6.59 in assay [5] and 5.13 in assay [7].

On to `C[N+]1(C)CCC[C@@H]1[C@@H]1C[S+]([O-])[C@@](c2ccccc2)(C2CCCCC2)O1.[I-]` (stereo in doubt; (+)-14), for which the inhibition constant (Ki) was 0.0214 µM in assay [1]; 0.0141 µM in assay [2]; 0.00692 µM in assay [4]; 0.0191 µM in assay [6]; 0.00692 µM in assay [8]. The pKb is recorded as 9 in assay [3], 7.98 in assay [5] and 7.59 in assay [7].

Consider `CN1CCC[C@@H]1[C@@H]1C[S+]([O-])[C@](c2ccccc2)(C2CCCCC2)O1` (stereo in doubt; (-)-7), for which the Ki in assay [1] was 0.00417 µM; in assay [2] it was 0.0589 µM; in assay [4], 0.0427 µM; in assay [6], 0.0427 µM; in assay [8], 0.0141 µM. The pKb in assay [3] came out at 8.71; in assay [5] it was 9.37; in assay [7] it was 6.92.

As for `CN1CCC[C@H]1[C@H]1C[S+]([O-])[C@@](c2ccccc2)(C2CCCCC2)O1` (stereo in doubt; (+)-7), the Ki in assay [1] was 0.0646 µM; in assay [2], 0.0251 µM; in assay [4], 0.0182 µM; in assay [6], 0.0331 µM; in assay [8] it was 0.01 µM. In addition, the pKb is listed as 7.96 in assay [3], 7.56 in assay [5] and 5.2 in assay [7].

Consider `C[N+]1(C)CCC[C@@H]1[C@@H]1C[S+]([O-])[C@](c2ccccc2)(C2CCCCC2)O1.[I-]` (stereo in doubt; (-)-12), for which the Ki in assay [1] was 0.0851 µM; in assay [2], 0.195 µM; in assay [4], 0.288 µM; in assay [6] it was 0.316 µM; in assay [8] it was 0.0562 µM. Further, the pKb in assay [3] is 7.11; in assay [5] it was 7.91; in assay [7], 7.45.
